Where two headings read alike, the source gives them in different places.
What was measured:
ER = tested on: ER; design: method as in Opera; conditions: experimental call listed in the Opera output; ref Opera; cited from earlier work
Estrogen pathway = tested on: Estrogen pathway; design: method as in ToxCast; conditions: ref ToxCast, cited from earlier work; on Estrogen pathway: Cell Proliferation, Call: key: Pos = positive result; Neg = negative result; Inc = uncertain/inconclusive result; on Estrogen pathway: Dimerization, Call: key: Pos = positive result; Neg = negative result; Inc = uncertain/inconclusive result; on Estrogen pathway: Receptor binding, Call: key: Pos = positive result; Neg = negative result; Inc = uncertain/inconclusive result
Deiodinase = tested on: Deiodinase; design: method as in ToxCast; conditions: ref ToxCast, cited from earlier work
5-HT2B (h) = 5-HT2B (h) (Homo sapiens, UniProt P41595); assay: Pharmacology profiling: 5-HT2B (h) (agonist RL); format: binding; conditions: read-out: 5-HT2B (h) (agonist RL): % inhibition @10 µM
From the text: (§1) Cosmetics Europe’s Systemic Toxicity Taskforce (SysTox-TF) has extended the list of targets in an in vitro screen originally described by [Bowes et al. (2012)] to assess the effects of cosmetic chemicals on target molecules. The approach was based on the knowledge that various targets of pharmacological interest have been linked to human adverse drug reactions, and that screening of these has helped the pharma industry in identifying drug candidates with acceptable human safety profiles ([Bowes et al., 2012]; [Scott et al., 2022]). The methods used by the pharma industry were adapted for use in cosmetic chemical NGRA. A final list of 83 target assays were considered suitable for cosmetic chemical safety testing (see Supplementary Materials S1.7). The targets were receptors, ion channels, transporters and enzymes identified by the pharma industry as linked to human adverse drug reactions, supplemented by additional targets that have been reasoned to be linked to systemic toxicities of chemicals in animals. Chemicals that are flagged for a target are tested in follow-up dose-response assays to establish potency of the interaction. […]. [Valentin et al., 2018]; [Dodson et al., 2021]). […].
(§2) assay’s reference compound was set to 100%. For antagonist assays, the basal signal (exposure to fixed concentration of agonist only) was set to 100%. Activity of the samples was scaled accordingly, […]
(§3) Using these graphs, lowest […]
(§4) compound activity for antagonist assays.
(§5) S1.7. Pharmacology profiling assays […]
(§6) reasoned to link to pathological effects. […]
(§7) around the control level. […]
(§8) determine the potency (IC50).
(§9) Supplementary Table S4 Pharmacology profiling assay panel. […]

Aromatase = tested on: Aromatase; design: method as in ToxCast; conditions: ref ToxCast; cited from earlier work; further: key: Pos = positive result; Neg = negative result; Inc = uncertain/inconclusive result
PDE4D2 (h) = PDE4D2 (h) (Homo sapiens, UniProt Q08499); assay: Pharmacology profiling: PDE4D2 (h) (phosphodiesterase 4D); format: biochemical; conditions: read-out: PDE4D2 (h) (phosphodiesterase 4D): % inhibition @10 µM
From the text: as §1, §2, §3, §4, §5, §6, §7, §8, §9

MCF-7 cells = assay: Transcriptomics (TempO-Seq, BMD analysis) in MCF-7 cells; format: cell-based, human
Protocol: (§10) These differed with respect to the number of genes passing all filters in each pathway (3 versus 5 genes). […] Therefore, we captured pathways which fulfilled both criteria.
(§11) HepG2 (human hepatoblastoma) , MCF-7 (human breast adenocarcinoma) cells supplied by
(§12) Public Health England European Collection of Cell Cultures (ECACC, Salisbury, UK). Differentiated
(§13) HepaRG cells (HPR116, Lot HPR116239 -TA08) were from Biopredic International (Rennes, France).
(§14) Test chemicals were prepared in DMSO as serial dilutions, resulting in concentrations in media of
(§15) biological replicates were treated with the appropriate dose of co mpound for 24 h prior to cell lysis.
(§16) Biospyder human whole genome panel version 1 (https://biospyder.com).
Gene normalization and analysis
(§17) expression values for each probe were normalized by applying DESEQ2 normalization. A pseudo-
(§18) read-count of 1.0 was added to each normalized expression value, and then the values were log2
(§19) transformed . Analyses performed included Gene and Pathway, Dose Response and Network
(§20) monotonic increasing/decreasing trend were those which confirmed to the criteria : William’s trend
(§21) Those genes were then used in categorical (pathway) analysis for the Gene Ontology (GO) terms and
(§22) REACTOME pathways. Significant dose responsive pathways were determined according to : Fisher’s

HepG2 cells [1] = assay: Transcriptomics (TempO-Seq, BMD analysis) in HepG2 cells; format: cell-based, human
Protocol: as §10, §11, §12, §13, §14, §15, §16
Gene normalization and analysis
as §17, §18, §19, §20, §21, §22

COX1 (h) = COX1 (h) (Homo sapiens, UniProt P23219); assay: Pharmacology profiling: COX1 (h); format: biochemical; conditions: read-out: COX1 (h): % inhibition @10 µM
From the text: (§23) targets. The list of targets included the original panel of 44 targets (including receptors, ion channels,
(§24) transporters and enzymes) recommended by 4 major pharmaceutical companies as significant
(§25) reasoned to link to pathological effects. Results showing an inhibition or stimulation higher than 50%
(§26) are considered to represent significant effects (i.e. a “hit”).
(§27) and 50% are indicative of weak to moderate effects and results showing an inhibition (or stimulation)
(§28) around the control level. For several targets, additional concentration effect assays were conducted to
(§29) determine the potency (IC50). The concentrations tested (in duplicate) ranged between 30 nM and 100

Adenosine A1 (h) = target: T1, Adenosine A1 (h) (Homo sapiens, UniProt P30542); assay: Pharmacology profiling: Adenosine A1 (h) (antagonist RL); format: binding; conditions: read-out: Adenosine A1 (h) (antagonist RL): % inhibition @10 µM
T1 sequence (P30542 1-326): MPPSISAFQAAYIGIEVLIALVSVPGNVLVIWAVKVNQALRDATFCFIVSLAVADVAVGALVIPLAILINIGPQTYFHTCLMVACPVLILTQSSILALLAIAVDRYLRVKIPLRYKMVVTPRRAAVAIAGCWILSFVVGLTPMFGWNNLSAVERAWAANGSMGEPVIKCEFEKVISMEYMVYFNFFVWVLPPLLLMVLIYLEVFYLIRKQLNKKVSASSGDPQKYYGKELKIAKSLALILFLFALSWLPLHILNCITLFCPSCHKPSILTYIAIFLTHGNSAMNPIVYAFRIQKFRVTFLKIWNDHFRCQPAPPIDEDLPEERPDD
From the text: as §23, §24, §25, §26, §27, §28, §29

U2-OS cells = conditions: human, 24 h
Protocol: using the U2-OS based CALUX cytotox bioassay. The cytotoxicity of each test chemical was assessed using the U2-OS based cytotoxicity CALUX bioassay. Concentrations causing >20% reduction of luminescence were considered cytotoxic.
cytotoxicity (relative induction in the cytotoxicity CALUX bioassay > 80%) were used for final
evaluation of analysis results.
induction in the cytotox CALUX bioassay > 80%) were used for final evaluation of analysis results.
All analysis results were expressed in molar (M) final in well.
For the analyses in the presence of rat liver S9, 0.03% (v/v) of PB/BNF induced rat liver
S9 mix (including NADPH and an NADPH-regenerating system) was added to the cells directly after
addition of the compounds, which remained there for the duration of the exposure period (24 h) (van

HepG2 cells [2] = assay: cells; format: cell-based; conditions: for AC50: Homo sapiens, HepG2, 24 h
Monooxygenase = tested on: Monooxygenase; design: method as in ToxCast; conditions: ref ToxCast, cited from earlier work
HepaRG cells = assay: Transcriptomics (TempO-Seq, BMD analysis) in HepaRG cells; format: cell-based
Protocol: as §10, §11, §12, §13, §14, §15, §16
Gene normalization and analysis
as §17, §18, §19, §20, §21, §22

[3] = MCF-7, 24 h, pathway differs per chemical
[4] = HepG2, 24 h, pathway differs per chemical
[5] = HepaRG, 24 h, pathway differs per chemical

Sequence of 5-HT2B (h) (P41595 whole entry): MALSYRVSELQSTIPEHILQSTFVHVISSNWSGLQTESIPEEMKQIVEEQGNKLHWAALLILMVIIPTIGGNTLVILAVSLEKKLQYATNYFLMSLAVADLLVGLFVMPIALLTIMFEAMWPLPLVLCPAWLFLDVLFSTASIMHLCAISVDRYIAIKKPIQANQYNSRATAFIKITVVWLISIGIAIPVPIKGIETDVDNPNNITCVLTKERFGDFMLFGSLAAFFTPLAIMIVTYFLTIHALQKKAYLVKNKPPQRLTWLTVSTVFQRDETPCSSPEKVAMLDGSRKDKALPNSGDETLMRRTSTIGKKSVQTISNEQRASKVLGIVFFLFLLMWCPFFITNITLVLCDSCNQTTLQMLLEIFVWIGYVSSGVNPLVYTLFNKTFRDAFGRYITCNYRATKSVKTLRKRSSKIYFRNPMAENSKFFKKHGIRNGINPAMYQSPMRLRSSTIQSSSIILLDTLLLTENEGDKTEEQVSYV
Sequence of PDE4D2 (h) (Q08499 303-809): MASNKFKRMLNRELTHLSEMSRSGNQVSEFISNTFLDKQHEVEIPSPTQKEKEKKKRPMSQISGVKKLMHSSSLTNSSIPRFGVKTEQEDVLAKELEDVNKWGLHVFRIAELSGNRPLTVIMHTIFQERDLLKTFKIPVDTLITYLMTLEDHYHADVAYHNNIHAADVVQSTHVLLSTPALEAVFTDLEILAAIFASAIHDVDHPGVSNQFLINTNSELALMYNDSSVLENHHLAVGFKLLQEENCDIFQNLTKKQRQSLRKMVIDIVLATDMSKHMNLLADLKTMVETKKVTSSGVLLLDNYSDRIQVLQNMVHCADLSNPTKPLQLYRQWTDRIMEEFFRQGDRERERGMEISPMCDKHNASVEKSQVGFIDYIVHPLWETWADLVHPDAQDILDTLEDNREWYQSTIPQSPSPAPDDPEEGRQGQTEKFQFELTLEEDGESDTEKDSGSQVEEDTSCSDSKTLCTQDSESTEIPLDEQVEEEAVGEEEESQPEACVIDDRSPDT
Sequence of COX1 (h) (P23219 24-599): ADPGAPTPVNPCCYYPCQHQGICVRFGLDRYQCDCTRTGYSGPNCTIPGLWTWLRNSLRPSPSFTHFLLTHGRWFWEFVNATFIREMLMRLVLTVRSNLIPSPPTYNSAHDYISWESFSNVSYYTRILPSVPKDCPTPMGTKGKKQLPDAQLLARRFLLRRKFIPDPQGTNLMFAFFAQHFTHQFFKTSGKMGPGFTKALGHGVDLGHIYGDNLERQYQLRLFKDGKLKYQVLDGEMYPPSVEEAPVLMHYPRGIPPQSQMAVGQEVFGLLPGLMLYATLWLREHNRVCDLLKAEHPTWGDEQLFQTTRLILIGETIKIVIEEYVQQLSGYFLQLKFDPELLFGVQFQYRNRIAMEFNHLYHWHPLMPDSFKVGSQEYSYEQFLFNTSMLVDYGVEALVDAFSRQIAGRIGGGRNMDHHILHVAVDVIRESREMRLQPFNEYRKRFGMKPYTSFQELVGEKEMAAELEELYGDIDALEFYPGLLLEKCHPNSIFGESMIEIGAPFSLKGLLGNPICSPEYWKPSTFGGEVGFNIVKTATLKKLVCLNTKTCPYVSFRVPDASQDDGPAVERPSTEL

Structure (SMILES): O=c1c(-c2ccc(O)cc2)coc2cc(O)ccc12 [Daidzein, DAIDZEIN]
- ER agonist, Experimental (ER): Active (medium)
- ER binding, Experimental (ER): Active (weak)
- Estrogen pathway: Cell Proliferation, Call (Estrogen pathway): Pos
- Estrogen pathway: Dimerization, Call (Estrogen pathway): Pos
- Estrogen pathway: Receptor binding, Call (Estrogen pathway): Pos
- Estrogen pathway: Reporter protein Agonist, Call (Estrogen pathway): Pos
- Estrogen pathway: Reporter protein Antagonist, Call (Estrogen pathway): Neg
- Estrogen pathway: mRNA induction, Call (Estrogen pathway): Pos
- AC50 (Estrogen pathway; read-out: Estrogen pathway: Cell Proliferation, AC50): 0.15 µM
- AC50 (Estrogen pathway; read-out: Estrogen pathway: Dimerization, AC50): 0.77 µM
- AC50 (Estrogen pathway; read-out: Estrogen pathway: Receptor binding, AC50): 0.17 µM
- AC50 (Estrogen pathway; read-out: Estrogen pathway: Reporter protein Agonist, AC50): 1.68 µM
- AC50 (Estrogen pathway; read-out: Estrogen pathway: mRNA induction, AC50): 0.15 µM
- Thyroid pathway: Deiodinase (Not AOP), Call (Deiodinase): Pos
- AC50 (Deiodinase; read-out: Thyroid pathway: Deiodinase (Not AOP), AC50): 17.2 µM
- inhibition at 10 µM (5-HT2B (h)): 44.1%
- Steroidogenesis: Aromatase, Call (Aromatase): Neg
- inhibition at 10 µM (PDE4D2 (h)): 0.04%
- Lowest median BMD, 3 genes passing all filters (MCF-7 cells; [3]): 0.038 µM
- Lowest median BMD, >5 genes passing all filters (MCF-7 cells; [3]): 0.084 µM
- BMD relating to estrogen effects (MCF-7 cells; MCF-7, 24 h, pathway named in the cell): 21.3 - response to estrogen ↓ µM
- Lowest median BMD (BMD/NOEC, gene pathway deregulation) (MCF-7 cells; MCF-7 cells): 38 nM
- Lowest median BMD, 3 genes passing all filters (HepG2 cells [1]; [4]): 16.2 µM
- Lowest median BMD, >5 genes passing all filters (HepG2 cells [1]; [4]): 30.0 µM
- BMD relating to estrogen effects (HepG2 cells [1]; HepG2, 24 h, pathway named in the cell): None
- BMD/NOEC, gene pathway deregulation (HepG2 cells [1]; HepG2 cells): 16.2 µM
- inhibition at 10 µM (COX1 (h)): 44.7%
- inhibition at 10 µM (Adenosine A1 (h)): 19.9%
- Cytotoxicity LOEC, +S9 (U2-OS cells): >−5 Log M
- Cytotoxicity LOEC, −S9 (U2-OS cells): >−5 Log M
- Apoptosis & necrosis: cell membrane permeability: Effect (HepG2 cells [2]): decrease
- AC50 (HepG2 cells [2]; read-out: Apoptosis & necrosis: caspase 3/7: AC50): > 100 µM
- AC50 (HepG2 cells [2]; read-out: Apoptosis & necrosis: cell membrane permeability: AC50): > 100 µM
- AC50 (HepG2 cells [2]; read-out: Cellular ATP: AC50): > 100 µM
- AC50 (HepG2 cells [2]; read-out: ER stress panel 1: ER integrity: AC50): > 100 µM
- AC50 (HepG2 cells [2]; read-out: Inflammation & pH: HIF1α: AC50): > 100 µM
- AC50 (HepG2 cells [2]; read-out: Inflammation & pH: intracellular pH: AC50): > 100 µM
- AC50 (HepG2 cells [2]; read-out: Mitochondrial mass: AC50): > 100 µM
- AC50 (HepG2 cells [2]; read-out: Mitochondrial membrane potential: AC50): 55.3 µM
- AC50 (HepG2 cells [2]; read-out: Nuclear size: AC50): > 100 µM
- AC50 (HepG2 cells [2]; read-out: Osmotic & heat shock: NFAT: AC50): > 100 µM
- AC50 (HepG2 cells [2]; read-out: Osmotic & heat shock: hsp70: AC50): > 25 µM
- AC50 (HepG2 cells [2]; read-out: Oxidative stress: HMOX1: AC50): 77.6 µM
- AC50 (HepG2 cells [2]; read-out: Oxidative stress: NRF2: AC50): > 100 µM
- Apoptosis & necrosis: caspase 3/7: MEC (HepG2 cells [2]; human, 24 h): 36.9 µM
- Apoptosis & necrosis: cell membrane permeability: MEC (HepG2 cells [2]; human, 24 h): 51.5 µM
- Cell stress LOEC, ↓ in mitochondrial membrane potential (HepG2 cells [2]; human, 24 h): 10.8 µM
- Cellular ATP: MEC (HepG2 cells [2]; human, 24 h): 89.4 µM
- ER stress panel 1: ER integrity: MEC (HepG2 cells [2]; human, 24 h): 82.6 µM
- Inflammation & pH: HIF1α: MEC (HepG2 cells [2]; human, 24 h): 32.3 µM
- Inflammation & pH: intracellular pH: MEC (HepG2 cells [2]; human, 24 h): 26.3 µM
- Mitochondrial mass: MEC (HepG2 cells [2]; human, 24 h): 25.9 µM
- Mitochondrial membrane potential: MEC (HepG2 cells [2]; human, 24 h): 10.8 µM
- Nuclear size: MEC (HepG2 cells [2]; human, 24 h): 69.2 µM
- Osmotic & heat shock: NFAT: MEC (HepG2 cells [2]; human, 24 h): 25.0 µM
- Osmotic & heat shock: hsp70: MEC (HepG2 cells [2]; human, 24 h): 3.3 µM
- Oxidative stress: HMOX1: MEC (HepG2 cells [2]; human, 24 h): 44 µM
- Oxidative stress: NRF2: MEC (HepG2 cells [2]; human, 24 h): 30.4 µM
- Phospholipidosis: MEC (HepG2 cells [2]; human, 24 h): 14.2 µM
- Steatosis: MEC (HepG2 cells [2]; human, 24 h): 77.4 µM
- Thyroid pathway: Monooxygenase (Not AOP), Call (Monooxygenase): Pos
- AC50 (Monooxygenase; read-out: Thyroid pathway: Monooxygenase (Not AOP), AC50): 9.1 µM
- BMD/NOEC, gene pathway deregulation (HepaRG cells; HepaRG cells): 33.1 µM
- Lowest median BMD, 3 genes passing all filters (HepaRG cells; [5]): 33.1 µM
- Lowest median BMD, >5 genes passing all filters (HepaRG cells; [5]): 39.3 µM
- BMD relating to estrogen effects (HepaRG cells; HepaRG, 24 h, pathway named in the cell): None

Source: article PMC11220827 (Frontiers in Pharmacology, 2024)
